Assay [1] relates to healthy human skin transplanted onto beige-SCID mice. Description: Humanized psoriasis model, human skin xenografts on beige-SCID mice. In kind it is in vivo, mouse. To be noted: for Healthy Skin, number of grafts / Partial Psoriasiform With Tendency Towards Healthy skin, number of grafts / Psoriasiform Skin, number of affected grafts: histological evaluation, day 28; for proliferation index (% Ki-67 positive cells): vs vehicle; for epidermal thickness: vs vehicle treated group. From the text: In this model, psoriasis is induced in xenotransplants of healthy human skin transplanted onto beige severe combined immunodeficiency (SCID) mice followed by intradermal (i.d.) injection of IL-2 enriched Peripheral Blood Mononuclear Cells (PBMCs) isolated from blood of psoriasis patients (Nickoloff, 1995; Wrone-Smith, 1996 Gilhar et al., 2002, 2006, 2011). The activity of these compounds was compared to that of Enbrel, a TNF inhibitor which is an approved biological drug for treatment of psoriasis. As a control for model robustness, we used dexamethasone, a steroid with suppressive effects on inflammatory cytokines and chemokines such as TNF-alpha and interferon-gamma which cause severe psoriasis. All treatments were administered intradermally, except for dexamethasone which was given topically.
2.2. Study Protocol A) Healthy human skin pieces with a width of 0.4 mm and surface area of 1.5×1.5 cm were provided from residual skin of routine plastic surgery procedures from the Plastic Surgery Department of the Rambam Medical Center, Israel. In addition, 20 mL blood samples were taken from psoriatic patients. B) Seventy (70) beige-severe combined immunodeficient mice (SCID) (weight ˜20-25 g) were included in this study. Normal healthy human donor skin was transplanted onto the beige-SCID mice as previously described (Nickoloff et al., 1995; Wrone-Smith, 1996; Gilhar et al., 2002, 2006, 2011; Kalish et al., 2009) and the mice were divided into 7 groups. C) Peripheral Blood Mononuclear Cells (PBMCs) isolated from psoriatic patients' blood were cultured in the presence of IL-2 [Prospec, 100 U/mL of RPMI 1640 media, 10% human AB serum (Sigma, St. Louis, Mo.), 1% glutamine, 1% antibiotics (media components; Biological Industries, Kibbutz Beit Haemeck, Israel)] for 14 days, as previously described (Gilhar et al, 2002). D) Four weeks following engraftment, each mouse was injected intra-dermally (i.d.) into the grafted skin lesion, with 1×10^7 activated allogeneic enriched PBMCs from psoriatic patients (FIG. 20). Cells from different psoriasis patients were equally distributed between treatment groups so that each patient is represented in each treatment group. E) On the day of PBMCs injection into the skin grafts, mice were divided randomly into treatment groups (n=9-10 mice per group) and administration of all drugs started (FIG. 20). All tested compounds including the vehicle were given intradermally (intralesional), three times a week, except for dexamethasone which was given topically for 14 consecutive days (Table 3).
F) Twenty eight days after starting the injections and treatment, skin was harvested (FIG. 20). Grafts were analyzed for the following psoriatic parameters by histology: epidermal thickening (acanthosis), suprapapillary epidermal thinning (papillomatosis), hyperkeratosis, parakeratosis, orthokeratosis, agranulosis-hypogranulosis, appearance of neutrophils in the upper spinous layer or in the corneal cell layer—Munro microabscess, regular elongation of rete ridges, angiogenesis, edema and dilated tortuous blood vessels in the dermal papilla and mononuclear cell infiltrate in the papillary dermis. Epidermal thickness was measured as detailed below, and HLA-DR, ICAM-1, Ki-67 and immune infiltrates (anti-CD3 stain) were evaluated by immunohistochemistry (IHC).
The entire skin graft was excised and placed in 10% formal saline overnight. Then, the specimens were place in 70% ethanol and were embedded according to the standard H&E protocol. Histological assessment of the skin grafts was performed by light microscopy and evaluated by two blinded observers [the second observer evaluated random slides (about 25% of all slides) to compare the data obtained by the first observer. […] Epidermal thickness was determined with an ocular micrometer at a minimum of 50 points along the epidermis selected to represent points of maximal and minimal thickness.
Representative grafts were allocated for IHC analysis. […]

Assay [2] relates to TcK and macrophages co-cultures. The assay can be described thus: TcK:macrophage co-culture cytokine secretion, healthy volunteers. It is filed as cell-based, human. To be noted: buffy coats of healthy volunteers. The method, then: • Purified CD4+ cells (2×10^6 cells/ml) are activated for 6 days in complete medium containing IL-15 (100 ng/ml), IL-6 (100 ng/ml) and TNFa (25 ng/ml).
TcKs are added to macrophage culture following removal of existing culture media at a ratio of 4:1 (5×10^4 cells/well/CD4^+ T cells plus 2×10^5 cells/well CD14^+ Macrophages). C1ORF32 ECD-Fc (SEQ ID NO:43) or Control IgG are added at 1, 3, 10, 30 μg/ml. For additional controls co-cultures are added with vehicle or with medium only (Wennink et al., 2012).
After 24 hrs of culture, cytokines (IL-10, IFN-α, IL-6, IL-12, RANTES, IL-13, IL-15, IL-17, MIP-1α, GM-CSF, IFNγ, TNFα, IL-1RA, IL-7, IL-1B, eotaxin, IL-2 IL-4 and IL-2R) are analyzed using ELISA and/or Luminex.
Co-culture of TcK with autologeuos ex-vivo differentiated macrophages mimics one of the crucial pathways mediating synovial macrophage activation in RA thus serving as a translational tool for evaluating the therapeutic potential of drug candidates. Therefore the effect of C1ORF32 ECD-Fc (SEQ ID NO:43) was tested on the secretion of a range of pro-inflammatory and anti-inflammatory cytokines in such co-cultures. Two studies were carried out, one in which buffy coats from healthy volunteers was used and another study in which the responses of RA patients blood cells responses were compared to that of healthy voluntiers in which blood was used rather than buffy coats.

Assay [3] deals with synovial-like T-cell - macrophage co-cultures. Description: Synovial-like T-cell - macrophage co-cultures from RA patients not responding to TNF blockers, TNFa secretion. In kind it is cell-based, human. From the text:
The therapeutic potential of C1ORF32-ECD-FC (SEQ ID #43) for treating RA was studied in co-cultures of activated T cells and macrophages that were modified to mimic the deleterious interaction of these cells in RA synovium. This interaction drives the secretion of pro-inflammatory cytokines that play a major role in the pathology of RA, leading to progressive joint inflammation and to joint destruction. Thus, these co-cultures provide a translational tool to evaluate the effect of potential drugs for treatment of RA (Wenink et al., Ann Rheum Dis 2012; 71:1 80-83).
Purified T cells and myeloid cells from blood of RA patients that fail to respond to treatment with TNF blockers were activated for 6 days with TNFa, IL-6 and IL-15 and co-cultures with Monocytes derived macrophages that were generated by activation of CD14+ monocytes with M-CSF for 6 days.
The amounts were administered as follows: FIG. 33: 30microg/ml of each protein; FIG. 34: 3, 10, 30microg/ml of each protein as shown.

A further assay deals with MS patients' PBMCs. The assay can be described thus: Proliferation and cytokine secretion of PBMCs from MS patients. It is filed as cell-based, human. The method, then: PBMCs were taken from eight MS patients with diagnosed relapsing-remitting disease who have experienced a relapse 1-2 days prior to blood drawing.
PBMCs were plated in a flat-bottom 96-well plate at 1e6 cells/well. The cells were cultured in the presence of anti-CD3 (0.5 ug/ml), MS-specific peptide MBP85-96 (10 ug/ml), or tetanus toxoid peptide TT830-843 (10 ug/ml). C1ORF32 ECD-Fc (SEQ ID NO: 43) or Control Ig were added to the cuture at the indicated concentrations. Two replicate plates were set to study for the effect of C1ORF32 ECD-Fc (SEQ ID NO: 43) on proliferation and on pro-inflammatory and anti-inflammatory cytokines secretion. To test for proliferation, the cultures were pulsed on day +1 of culture with 1uCi of tritiated thymidine and then harvested 3 days later on day +4 of culture. For cytokine analysis, super natantes from a replicate cultures were collected on day +4 of culture and tested using Millipore multiplex assay.

The next assay has as its system male DBA-1 mice. The assay can be described thus: Established collagen induced arthritis (CIA), macroscopic and histological scores. To be noted: Enbrel 5 mg/kg. In kind it is in vivo, mouse. The method, then:
Bovine type II collagen (CII) (RUNMC in house production, batch 03-04-08) at a concentration of 2 mg/ml in acetic acid 0.05M was emulsified in equal volumes of Freund's complete adjuvant (2 mg/ml of Mycobacterium tuberculosis strain H37Ra; Difco, Detroit, Mich.).
On day 0, 10-12 week old male DBA-1 mice (Janvier Elevage, France) (n=95) were immunized i.d. at the base of the tail with 100 μg of bovine CII. On day 21, mice received an intraperitoneal booster injection of 50 μg of CII dissolved in phosphate buffered saline (PBS), and the onset of arthritis occurred a few days after this booster.
Joint inflammation in each paw was scored visually, using a scale of 0-2 per paw with a maximal score of 8 per animal: 0=non inflamed, 1=mild inflammation, 1.5=marked inflammation, and 2=severe inflammation. Scoring was performed three times a week.
Treatment was started in established CIA early after onset of disease (i.e. therapeutic regimen), when the macroscopic scores per animal were between 0.25 and 1.25 (on a scale of 0-8). […] Histology was scored for inflammation and destruction on an arbitrary scale of 0-3, for five different parameters: […]
Joints were fixed for at least 4 days in 4% formaldehyde, decalcified in 5% formic acid, and subsequently dehydrated and embedded in paraffin. […] The severity of inflammation in the joints was scored on a scale of 0-3 (0=no cells, 1=mild cellularity, 2=moderate cellularity, and 3=maximal cellularity). […] Depletion of PG was determined using an arbitrary scale of 0-3, ranging from normal, fully stained cartilage to destained cartilage, fully depleted of PGs. Chondrocyte death was scored on a scale of 0-3 ranging from no loss of chondrocyte nuclei to complete empty cartilage surface. The degree of cartilage surface erosion was scored on a scale of 0-3, ranging from no damage to complete loss of articular cartilage. […] Histopathological changes in the joint were scored on three semiserial sections of the joint spaced 70 μm apart. […]

Another assay has as its system psoriasis patients. The conditions noted are these: at week 12; cited from earlier work.

Several values for one entry are separate records, joined by “and”; a condition that tells them apart may be missing. Equal entries are not always repeated. Entries after “also recorded” stand apart in the source; their conditions may differ.

For the compound `C[C@@H]1C[C@H]2[C@@H]3CCC4=CC(=O)C=C[C@]4(C)[C@@]3(F)[C@@H](O)C[C@]2(C)[C@@]1(O)C(=O)CO` [dexamethasone], in assay [1], the “Healthy Skin, number of grafts” value is reported as 7/10; the “Partial Psoriasiform With Tendency Towards Healthy skin, number of grafts” value amounted to 1; the “Psoriasiform Skin, number of affected grafts” value (from here on “Psoriasiform Skin, number”) is 2 and 2/10. In assay [1] (listed as Dexa), the “Partial Psoriasiform With Tendency Towards Healthy skin, number of grafts” value was 1/10 and the “Psoriasiform Skin, number” value was 2/10. The “grafts with moderate lymphocytic infiltration” value in assay [1] (mouse, in vivo) was 1/10.
For the compound “C1ORF32 ECD-Fc (SEQ ID NO: 43): human-human fusion protein: human C1ORF32 ECD fused to human immunoglobulin Fc (SEQ ID NO:43)”, the “secretion of TNFa, RANTES, MIP-1a, GM-CSF and IL-5” value in assay [2] was “inhibited”. Besides, in assay [3] (Example 20, 30 microg/ml), the TNFa secretion entry is “decreased the secretion of TNFα” and the “TNFa secretion in one of the donors” value is “inhibited TNFα secretion”. For the same compound, in assay [3] (Example 21, 3, 10, 30 microg/ml), the TNFa secretion entry was “decreased the secretion of TNFa; also recorded: inhibition of TNFa secretion in a dose dependent manner”. For the same compound, in the assay on MS patients' PBMCs (absence of activation), the “proliferation, secretion of IFNg, IL-17 and TNFa” value is recorded as “no effect”. Moreover, in the assay with MS patients' PBMCs (absence of activation, in some of the donors), the “IL-10, IL-4, TGFb and IL-6” value was “elevation”. Further, the “IL-4, IL-10, TGFb and IL-6 secretion” value in the assay with MS patients' PBMCs (activated ex-vivo with MBP85-96) is recorded as “increase”. Besides, in assay [1] (IHC), the “expression of HLA-DR, ICAM-1 and Ki-67” value is on record as “decreased expression”; the “proliferation index (% Ki-67 positive cells)” value is “trend towards decrease”. The “proliferation index (% Ki-67 positive cells)” value in assay [1] (IHC, listed as C1ORF ECD-Fc (SEQ ID NO:43)) is “most pronounced reduction”. Moreover, in assay [1], the “Healthy Skin, number of grafts” value is on record as 5/9 and the “Psoriasiform Skin, number” value is given as 4/9. The “cases in which disease symptoms were eliminated” value in assay [1] (summary in detailed description) is “about a third of the cases”. Besides, the epidermal thickness entry in assay [1] (listed as C1ORF ECD-Fc (SEQ ID NO:43)) is recorded as “significant reduction”.
Consider Enbrel, for which the “bone erosions, histology” value in the assay on male DBA-1 mice is “significant reduction”. The “proliferation index (% Ki-67 positive cells)” value in assay [1] (IHC) is recorded as “trend of decrease”. Further, in assay [1], the “Healthy Skin, number of grafts” value was 3/9; the “Psoriasiform Skin, number” value is reported as 6/9; the epidermal thickness entry is “no substantial effect; also recorded: no significant reduction”. In the assay on psoriasis patients, the “psoriasis patients achieving PASI 75” value is reported as “Forty nine”.

(Values after US20190309044A1, “POLYPEPTIDES AND USES THEREOF AS A DRUG FOR TREATMENT OF AUTOIMMUNE DISORDERS” (Compugen Ltd., priority 2017, published 2019).)
